Results on 21 compounds are retold here after article PMC6222558, “Synthesis and Evolution of Berberine Derivatives as a New Class of Antiviral Agents against Enterovirus 71 through the MEK/ERK Pathway and Autophagy” (Molecules : A Journal of Synthetic Chemistry and Natural …, 2018).

Each structure is given as a SMILES string. Where a name gives a salt, the structure may show the parent alone.

For series [1], the system named is EV71 BrCr strain (VR-1775, genotype A). The series is described as follows: CPE inhibition assay for anti-EV71, BrCr strain. As to conditions: Enterovirus A, EV71; Vero cells; CPE; calculated on the organic part; n = 3; read-out: BrCr Strain IC50. It counts as cell-based, enterovirus 71 (EV71). The procedure: (§1) Thus, all newly synthesized BBR analogues were screened for their anti-EV71 potencies in African green monkey kidney (Vero) cells taking BBR as the positive control. EV71 strains used in the present study include different genotype strains, such as H strain (VR-1432, genotype C2), BrCr strain (VR-1775, genotype A), and JS-52 and SHZH98 (genotype C4). The potency against EV71 strains above mentioned of each tested compound was evaluated by the combination of its IC50 and selectivity index (SI) value as the important therapeutic indication.
(§2) Vero cells were purchased from the American Type Culture Collection (ATCC, […], MD, USA), and were cultured in Minimum Essential Medium (MEM) supplemented with 10% fetal bovine serum (FBS) (GIBCO, Grand Island, NY, USA) and antibiotics (100 U/mL penicillin and […] streptomycin) at 37 °C in a 5% CO2 incubator. EV71 strain SHZH98 isolated from the throat swab sample of an HFMD case occurring in 1998 in China was kindly provided by Dr. Qi Jin (Institute of Pathogen Biology, Chinese Academy of Medical Science and Peking Union Medical School, Beijing, China), and JS-52 strain was a kind gift from Dr. Xiangzhong Ye (Beijing Wantai Biological Pharmacy Enterprise Co., Ltd., Beijing, China). The EV71 BrCr and H strains were purchased from the ATCC. All of EV71 strains were passaged in Vero cells.
(§3) The anti-EV71 activities of all tested compounds were detected by the virus-induced CPE assay. Briefly, cells (3 × 10^4 cells/well) were plated into 96-well culture plates and incubated for 16 h. Then, remove the medium and infected cells with EV71 of 100 × TCID50 (50% tissue culture infective doses) in serum-free medium for 1 h at 37 °C. After that, the unbound viruses were removed and various concentrations of tested compounds were supplemented for incubation of another 72 h. […] TC50 defined as the concentration that leads to the 50% of CPE which determined by the same method in 72 h. In addition, the cells were stained the cells were colored with 0.5% crystal violet in 20% ethanol for 15 min at room temperature and the cells were imaged after rinsed with PBS.

In series [2] the test system is EV71 JS-52 strain (genotype C4). The series is described as follows: CPE inhibition assay for anti-EV71, JS-52 strain. Format: cell-based, enterovirus 71 (EV71). As to conditions: Enterovirus A, EV71; Vero cells; CPE; calculated on the organic part; n = 3; read-out: JS-52 Strain IC50. As for the experimental part: as §1, §2, §3
Series [3] concerns EV71 H strain (VR-1432, genotype C2). Put plainly: CPE inhibition assay for anti-EV71, H strain. Format: cell-based, enterovirus 71 (EV71). The conditions noted are these: Vero cells; for IC50: Enterovirus A, EV71, CPE, calculated on the organic part, n = 3, read-out: H Strain IC50; for anti-EV71 activity against H strain, in words: compared with BBR. The procedure: as §1, §2, §3

The test system of series [4] is Vero cells. The series is described as follows: Cytotoxicity assay (CCK) in Vero cells. Format: cell-based, African green monkey. As to conditions: African green monkey, 48 h. The procedure:
as §2
Cytotoxicity of all target compounds in Vero cells was analyzed by CCK (TransGen Biotech, Beijing, China) assay. In brief, cells in exponential phase (3 × 10^4 cells/well) were seeded into 96-well culture plates and incubated overnight. Then, the medium was removed and different concentrations of all target compounds were applied in duple. After 48 h incubation, the cytotoxicity of all target compounds was determined by CCK assay. The signals were read at 450 nm on Enspire (Perkin Elmer, Waltham, MA, USA). The TC50 was defined as the concentration that inhibits 50% cellular growth in comparison with the controls. It is calculated by the Reed and Muench method.

For series [5], the system named is EV71 SHZH98 strain (genotype C4). The series is described as follows: CPE inhibition assay for anti-EV71, SHZH98 strain. It counts as cell-based, enterovirus 71 (EV71). The conditions noted are these: Enterovirus A, EV71; Vero cells; CPE; calculated on the organic part; n = 3; read-out: SHZH98 Strain IC50. The procedure: as §1, §2, §3

For `COc1cc2c(cc1OCC(=O)C(C)(C)C)CC[n+]1cc3c(OC)c(OC)ccc3cc1-2` (as salt: chloride) [5b, 2,9,10-Trimethoxy-3-pivalylmethylenoxy protoberberine chloride], the melting point lay in the range of 223 to 225 °C.

As to `COc1cc2c(cc1OC)-c1cc3ccc(OC)c(OCC(=O)OCc4ccccc4)c3c[n+]1CC2` (as salt: chloride) [4c, 2,3,10-Trimethoxy-9-benzyloxyformylmethylenoxy protoberberine chloride], the melting point is 196 to 198 °C.

The compound `COc1cccc(C(=O)COc2cc3c(cc2OC)-c2cc4ccc(OC)c(OC)c4c[n+]2CC3)c1` (as salt: chloride) [5e, 2,9,10-Trimethoxy-3-m-methoxyphenylformylmethylenoxy protoberberine chloride] registered a melting point of 218 to 220 °C.

`COc1cc2c(cc1OC)-c1cc3ccc(OC)c(OCC(=O)c4ccc(C)cc4)c3c[n+]1CC2` (as salt: chloride) [4d, 2,3,10-Trimethoxy-9-p-tolylformylmethylenoxy protoberberine chloride]: the melting point was 228 to 230 °C.

Compound `COc1ccc2cc3[n+](cc2c1OCC(=O)c1ccc(C)cc1)CCc1cc2c(cc1-3)OCO2` (as salt: chloride) [2e, 2,3-Methylenedioxy-9-p-tolylformylmethylenoxy-10-methoxy protoberberine chloride] registered a melting point of 219 to 221 °C.

For `COc1ccc2cc3[n+](cc2c1OCC(=O)OCC(C)C)CCc1cc2c(cc1-3)OCO2` (as salt: chloride) [2b, 2,3-Methylenedioxy-9-isobutyloxyformylmethylenoxy-10-methoxy protoberberine chloride], the melting point lay in the range of 232 to 234 °C.

The compound `COc1cc2c(cc1OC)-c1cc3ccc(OC)c(OC(=O)OCc4ccccc4)c3c[n+]1CC2` (as salt: chloride) [4g, 2,3,10-Trimethoxy-9-benzyloxyformyloxy protoberberine chloride] displayed a melting point of 98 to 100 °C.

Compound `COc1cc2c(cc1OC)-c1cc3ccc(OC)c(OCC(=O)c4ccc(C(F)(F)F)cc4)c3c[n+]1CC2` (as salt: chloride) [4f, 2,3,10-Trimethoxy-9-p-trifloromethylphenylformylmethylenoxy protoberberine chloride] registered a melting point of 240 to 242 °C.

For `CCOC(=O)Oc1c(OC)ccc2cc3[n+](cc12)CCc1cc2c(cc1-3)OCO2` (as salt: chloride) [2i, 2,3-Methylenedioxy-9-ethyloxyformyloxy-10-methoxy protoberberine chloride], the melting point lay within 218 to 220 °C.

In the case of `COc1cc2c(cc1OCC(=O)c1ccc(C)cc1)CC[n+]1cc3c(OC)c(OC)ccc3cc1-2` (as salt: chloride) [5d, 2,9,10-Trimethoxy-3-p-methylphenylformylmethylenoxy protoberberine chloride], the melting point lay within 218 to 220 °C.

As for `COc1cccc(C(=O)COc2c(OC)ccc3cc4[n+](cc23)CCc2cc3c(cc2-4)OCO3)c1` (as salt: chloride) [2f, 2,3-Methylenedioxy-9-m-methoxyphenylformylmethylenoxy-10-methoxy protoberberine chloride], the melting point lay within 214 to 216 °C.

`COc1ccc2cc3[n+](cc2c1OCC(=O)C(C)(C)C)CCc1cc2c(cc1-3)OCO2` (as salt: chloride) [2c, 2,3-Methylenedioxy-9-pivalylmethylenoxy-10-methoxy protoberberine chloride] displayed a melting point of 242 to 244 °C.

Take `COc1cc2c(cc1OC)-c1cc3ccc(OC)c(OCC(=O)OCc4ccccc4)c3c[n+]1CC2` [4c, 2,3,10-Trimethoxy-9-benzyloxyformylmethylenoxy protoberberine chloride]: the IC50 in series [1] is 81.1 µM; in series [2], 99.3 µM; in series [3], > 143 µM; in series [5], > 143 µM. In series [4], the “TC50 (median toxic concentration)” value was 452 µM.

Turning to `COc1ccc2cc3[n+](cc2c1O)CCc1cc2c(cc1-3)OCO2` [compound 1], the IC50 is 35.4 µM in series [1], 28.5 µM in series [2], 37 µM in series [3] and 32.6 µM in series [5]. The “anti-EV71 activity against H strain, in words” value (from here on “anti-EV71 activity”) in series [3] is on record as “decreased activity”. The “TC50 (median toxic concentration)” value in series [4] was found to be 85.5 µM.

`COc1ccc2cc3[n+](cc2c1OCC(=O)O)CCc1cc2c(cc1-3)OCO2` [2d-a, 2,3-Methylenedioxy-9-carboxylmethylenoxy-10-methoxy protoberberine chloride]: the IC50 in series [1] is 145 µM; in series [2], 145 µM; in series [3], > 145 µM; in series [5], > 145 µM. For the same compound, the “anti-EV71 activity” value in series [3] is recorded as “complete loss on the antivirus potency”. Besides, in series [4], the “TC50 (median toxic concentration)” value stood at 437 µM.

In the case of `COc1cc2c(cc1OC(=O)OCc1ccccc1)CC[n+]1cc3c(OC)c(OC)ccc3cc1-2` [5g, 2,9,10-Trimethoxy-3-benzyloxyformyloxy protoberberine chloride], the IC50 was 82.8 µM in series [1], 51.3 µM in series [2], 143 µM in series [3] and 86.7 µM in series [5]. The “anti-EV71 activity” value in series [3] is listed as “partially or completely lost”. Moreover, the “TC50 (median toxic concentration)” value in series [4] was found to be 265 µM.

Turning to `COc1cc2c(cc1OCC(=O)C(C)(C)C)CC[n+]1cc3c(OC)c(OC)ccc3cc1-2` [5b, 2,9,10-Trimethoxy-3-pivalylmethylenoxy protoberberine chloride], the IC50 was 34.2 µM in series [1], 34.2 µM in series [2], 41.3 µM in series [3] and 69.3 µM in series [5]. The “TC50 (median toxic concentration)” value in series [4] was determined as 83.3 µM.

Regarding `COc1cc2c(cc1OCC(=O)c1ccc(C)cc1)CC[n+]1cc3c(OC)c(OC)ccc3cc1-2` [5d, 2,9,10-Trimethoxy-3-p-methylphenylformylmethylenoxy protoberberine chloride], the half-inhibitory concentration (IC50) is > 15.9 µM in series [1], 9.01 µM in series [2], > 15.9 µM in series [3] and 12 µM in series [5]. Besides, the “TC50 (median toxic concentration)” value in series [4] was found to be 41.0 µM.

Take `COc1cc2c(cc1OC)-c1cc3ccc(OC)c(OCC(=O)C(C)(C)C)c3c[n+]1CC2` [4b, 2,3,10-Trimethoxy-9-pivalylmethylenoxy protoberberine chloride]: the IC50 is 144 µM in series [1], 109 µM in series [2], > 144 µM in series [3] and > 144 µM in series [5]. In addition, in series [4], the “TC50 (median toxic concentration)” value was 333 µM.

With `COc1cccc(C(=O)COc2c(OC)ccc3cc4[n+](cc23)CCc2cc(OC)c(OC)cc2-4)c1` [4e, 2,3,10-Trimethoxy-9-m-methoxyphenylformylmethylenoxy protoberberine chloride], the IC50 in series [1] is 17.1 µM; in series [2], 19.4 µM; in series [3] it was 13.6 µM; in series [5], 27.6 µM. Also, in series [3], the “anti-EV71 activity” value is “comparable activity to BBR”. In series [4], the “TC50 (median toxic concentration)” value amounted to 143 µM.

For the compound `COc1ccc2cc3[n+](cc2c1OCC(=O)c1ccc(C)cc1)CCc1cc2c(cc1-3)OCO2` [2e, 2,3-Methylenedioxy-9-p-tolylformylmethylenoxy-10-methoxy protoberberine chloride], the IC50 was 2.23 µM in series [1], 2.67 µM in series [2], > 5.31 µM in series [3] and 2.84 µM in series [5]. Further, the “TC50 (median toxic concentration)” value in series [4] worked out at 14.4 µM.
